Experiments:
[1] = system: HCV replicon (strain 1b) in HUH-7 cells; assay: HCV replicon FRET assay; assay type: cell-based, Hepatitis C virus; conditions: Hepatitis C virus, Huh-7, read-out: HCV Pro Replicon (EC50), HCV replicon cell assay; activity range class
[2] = target: T1, HCV NS3/4A protease complex, BMS strain (UniProt P27958, species not given/STRAIN_BMS); assay: FRET peptide assay to monitor HCV NS3/4A proteolytic activity (BMS strain); assay type: biochemical, Hepatitis C virus (genotype 1a); conditions: read-out: HCV Protease (IC50); NS3/4A BMS strain; activity range class
T1 construct: other: NS3/4A BMS strain; activity range class; numeric values, unit not given; said of H77 and J4L6S; fused on or other part: A three-lysine solubilising tail at the C-terminus of NS4A; A His tag is implied by the pET21b vector and Ni-NTA purification; Both are printed for the H77 and J4L6S constructs and apply to BMS by inference
T1 sequence (P27958 1027-1657, change not shown, one chain of several): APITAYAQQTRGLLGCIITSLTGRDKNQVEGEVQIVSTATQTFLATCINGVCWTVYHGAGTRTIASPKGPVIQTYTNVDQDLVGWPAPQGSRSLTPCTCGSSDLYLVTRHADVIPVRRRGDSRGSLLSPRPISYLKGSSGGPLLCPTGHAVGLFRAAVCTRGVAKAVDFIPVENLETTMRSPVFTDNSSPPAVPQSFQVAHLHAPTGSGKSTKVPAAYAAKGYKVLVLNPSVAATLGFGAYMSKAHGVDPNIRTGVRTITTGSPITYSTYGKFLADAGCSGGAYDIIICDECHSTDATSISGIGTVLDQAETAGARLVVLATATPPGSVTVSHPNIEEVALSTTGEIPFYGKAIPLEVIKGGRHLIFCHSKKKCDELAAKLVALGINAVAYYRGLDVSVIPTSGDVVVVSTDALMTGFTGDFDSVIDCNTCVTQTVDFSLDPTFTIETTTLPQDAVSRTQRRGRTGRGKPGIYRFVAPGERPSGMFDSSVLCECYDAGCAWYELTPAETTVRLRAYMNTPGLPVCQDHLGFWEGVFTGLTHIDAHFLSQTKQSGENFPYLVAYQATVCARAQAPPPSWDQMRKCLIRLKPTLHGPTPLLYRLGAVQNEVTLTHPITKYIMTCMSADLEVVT
In short: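 Purified recombinant NS3/4A complex from genotype 1a BMS strain, 2-3 nM final, with RET S1 EDANS/DABCYL depsipeptide substrate at 2 μM final in HEPES pH 7.5, NaCl, Triton, glycerol, βME. Cleavage followed in real time by fluorescence. For high-potency compounds: 50 μg/ml BSA added, protease lowered to 300 pM.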

Structure (SMILES) | EC50 [1] [nM] | IC50 [2] [nM]
C=C[C@@H]1C[C@]1(NC(=O)[C@@H]1C[C@@H](Oc2ncc(OC)c3ccc(Cl)cc23)CN1C(=O)[C@H](Nc1ccc(F)c(F)c1)C(C)(C)C)C(=O)NS(=O)(=O)C1CC1 [220 second isomer, N-(3,4-difluorophenyl)-3-methyl-D-valyl-(4R)-4-((7-chloro-4-methoxy-1-isoquinolinyl)oxy)-N-((1R,2S)-1-((cyclopropylsulfonyl)carbamoyl)-2-vinylcyclopropyl)-L-prolinamide] | 100 to 1000 | > 200
C=C[C@@H]1C[C@]1(NC(=O)[C@@H]1C[C@@H](Oc2ncc(OC)c3ccc(Cl)cc23)CN1C(=O)[C@@H](Nc1ccc(C(=O)N(C)C)cc1)C(C)(C)C)C(=O)NS(=O)(=O)C1CC1 [221 first isomer, N-(4-(dimethylcarbamoyl)phenyl)-3-methyl-L-valyl-(4R)-4-((7-chloro-4-methoxy-1-isoquinolinyl)oxy)-N-((1R,2S)-1-((cyclopropylsulfonyl)carbamoyl)-2-vinylcyclopropyl)-L-prolinamide] | 100 to 1000 | 0.6 to 20
C=C[C@@H]1C[C@]1(NC(=O)[C@@H]1C[C@@H](Oc2ncc(OC)c3ccc(Cl)cc23)CN1C(=O)[C@H](Nc1ccc(C(=O)N(C)C)cc1)C(C)(C)C)C(=O)NS(=O)(=O)C1CC1 [221 second isomer, N-(4-(dimethylcarbamoyl)phenyl)-3-methyl-D-valyl-(4R)-4-((7-chloro-4-methoxy-1-isoquinolinyl)oxy)-N-((1R,2S)-1-((cyclopropylsulfonyl)carbamoyl)-2-vinylcyclopropyl)-L-prolinamide] | > 1000 | 20 to 200
C=C[C@@H]1C[C@]1(NC(=O)[C@@H]1C[C@@H](Oc2ncc(OC)c3ccc(Cl)cc23)CN1C(=O)[C@@H](Nc1ccc(S(=O)(=O)NCC)cc1)C(C)(C)C)C(=O)NS(=O)(=O)C1CC1 [223 first isomer, N-(4-(ethylsulfamoyl)phenyl)-3-methyl-L-valyl-(4R)-4-((7-chloro-4-methoxy-1-isoquinolinyl)oxy)-N-((1R,2S)-1-((cyclopropylsulfonyl)carbamoyl)-2-vinylcyclopropyl)-L-prolinamide] | 100 to 1000 | 0.6 to 20
C=C[C@@H]1C[C@]1(NC(=O)[C@@H]1C[C@@H](Oc2ncc(OC)c3ccc(Cl)cc23)CN1C(=O)[C@H](Nc1ccc(S(=O)(=O)NCC)cc1)C(C)(C)C)C(=O)NS(=O)(=O)C1CC1 [223 second isomer, N-(4-(ethylsulfamoyl)phenyl)-3-methyl-D-valyl-(4R)-4-((7-chloro-4-methoxy-1-isoquinolinyl)oxy)-N-((1R,2S)-1-((cyclopropylsulfonyl)carbamoyl)-2-vinylcyclopropyl)-L-prolinamide] | > 1000 | > 200
C=C[C@@H]1C[C@]1(NC(=O)[C@@H]1C[C@@H](Oc2ncc(OC)c3ccc(Cl)cc23)CN1C(=O)[C@@H](Nc1ccc(S(=O)(=O)N(C)C)cc1)C(C)(C)C)C(=O)NS(=O)(=O)C1CC1 [224 first isomer, N-(4-(dimethylsulfamoyl)phenyl)-3-methyl-L-valyl-(4R)-4-((7-chloro-4-methoxy-1-isoquinolinyl)oxy)-N-((1R,2S)-1-((cyclopropylsulfonyl)carbamoyl)-2-vinylcyclopropyl)-L-prolinamide] | 100 to 1000 | 0.6 to 20
C=C[C@@H]1C[C@]1(NC(=O)[C@@H]1C[C@@H](Oc2ncc(OC)c3ccc(Cl)cc23)CN1C(=O)[C@H](Nc1ccc(S(=O)(=O)N(C)C)cc1)C(C)(C)C)C(=O)NS(=O)(=O)C1CC1 [224 second isomer, N-(4-(dimethylsulfamoyl)phenyl)-3-methyl-D-valyl-(4R)-4-((7-chloro-4-methoxy-1-isoquinolinyl)oxy)-N-((1R,2S)-1-((cyclopropylsulfonyl)carbamoyl)-2-vinylcyclopropyl)-L-prolinamide] | 100 to 1000 | > 200
C=C[C@@H]1C[C@]1(NC(=O)[C@@H]1C[C@@H](Oc2ncc(OC)c3ccc(Cl)cc23)CN1C(=O)[C@@H](Nc1ccc(C(N)=O)cc1)C(C)(C)C)C(=O)NS(=O)(=O)C1CC1 [226 first isomer, N-(4-carbamoylphenyl)-3-methyl-L-valyl-(4R)-4-((7-chloro-4-methoxy-1-isoquinolinyl)oxy)-N-((1R,2S)-1-((cyclopropylsulfonyl)carbamoyl)-2-vinylcyclopropyl)-L-prolinamide] | 3 to 100 | 0.6 to 20
C=C[C@@H]1C[C@]1(NC(=O)[C@@H]1C[C@@H](Oc2ncc(OC)c3ccc(Cl)cc23)CN1C(=O)[C@@H](Nc1cccc(S(=O)(=O)NC)c1)C(C)(C)C)C(=O)NS(=O)(=O)C1CC1 [227 first isomer, 3-methyl-N-(3-(methylsulfamoyl)phenyl)-L-valyl-(4R)-4-((7-chloro-4-methoxy-1-isoquinolinyl)oxy)-N-((1R,2S)-1-((cyclopropylsulfonyl)carbamoyl)-2-vinylcyclopropyl)-L-prolinamide] | 3 to 100 | 0.6 to 20
C=C[C@@H]1C[C@]1(NC(=O)[C@@H]1C[C@@H](Oc2ncc(OC)c3ccc(Cl)cc23)CN1C(=O)[C@H](Nc1cccc(S(=O)(=O)NC)c1)C(C)(C)C)C(=O)NS(=O)(=O)C1CC1 [227 second isomer, 3-methyl-N-(3-(methylsulfamoyl)phenyl)-D-valyl-(4R)-4-((7-chloro-4-methoxy-1-isoquinolinyl)oxy)-N-((1R,2S)-1-((cyclopropylsulfonyl)carbamoyl)-2-vinylcyclopropyl)-L-prolinamide] | > 1000 | > 200
C=C[C@@H]1C[C@]1(NC(=O)[C@@H]1C[C@@H](Oc2ncc(OC)c3ccc(Cl)cc23)CN1C(=O)[C@@H](Nc1cccc(C(=O)OC(C)C)c1)C(C)(C)C)C(=O)NS(=O)(=O)C1CC1 [231 first isomer, N-(3-(isopropoxycarbonyl)phenyl)-3-methyl-L-valyl-(4R)-4-((7-chloro-4-methoxy-1-isoquinolinyl)oxy)-N-((1R,2S)-1-((cyclopropylsulfonyl)carbamoyl)-2-vinylcyclopropyl)-L-prolinamide] | 3 to 100 | 0.6 to 20
C=C[C@@H]1C[C@]1(NC(=O)[C@@H]1C[C@@H](Oc2ncc(OC)c3ccc(Cl)cc23)CN1C(=O)[C@H](Nc1cccc(C(=O)OC(C)C)c1)C(C)(C)C)C(=O)NS(=O)(=O)C1CC1 [231 second isomer, N-(3-(isopropoxycarbonyl)phenyl)-3-methyl-D-valyl-(4R)-4-((7-chloro-4-methoxy-1-isoquinolinyl)oxy)-N-((1R,2S)-1-((cyclopropylsulfonyl)carbamoyl)-2-vinylcyclopropyl)-L-prolinamide] | > 1000 | > 200
C=C[C@@H]1C[C@]1(NC(=O)[C@@H]1C[C@@H](Oc2ncc(OC)c3ccc(Cl)cc23)CN1C(=O)[C@@H](Nc1cccc(C(=O)OC)c1)C(C)(C)C)C(=O)NS(=O)(=O)C1CC1 [232 first isomer, N-(3-(methoxycarbonyl)phenyl)-3-methyl-L-valyl-(4R)-4-((7-chloro-4-methoxy-1-isoquinolinyl)oxy)-N-((1R,2S)-1-((cyclopropylsulfonyl)carbamoyl)-2-vinylcyclopropyl)-L-prolinamide] | 3 to 100 | 0.6 to 20
C=C[C@@H]1C[C@]1(NC(=O)[C@@H]1C[C@@H](Oc2ncc(OC)c3ccc(Cl)cc23)CN1C(=O)[C@H](Nc1cccc(C(=O)OC)c1)C(C)(C)C)C(=O)NS(=O)(=O)C1CC1 [232 second isomer, N-(3-(methoxycarbonyl)phenyl)-3-methyl-D-valyl-(4R)-4-((7-chloro-4-methoxy-1-isoquinolinyl)oxy)-N-((1R,2S)-1-((cyclopropylsulfonyl)carbamoyl)-2-vinylcyclopropyl)-L-prolinamide] | 3 to 100 | 20 to 200
C=C[C@@H]1C[C@]1(NC(=O)[C@@H]1C[C@@H](Oc2ncc(OC)c3ccc(Cl)cc23)CN1C(=O)[C@@H](Nc1ccccc1F)C(C)(C)C)C(=O)NS(=O)(=O)C1CC1 [234 first isomer, N-(2-fluorophenyl)-3-methyl-L-valyl-(4R)-4-[(7-chloro-4-methoxy-1-isoquinolinyl)oxy]-N-((1R,2S)-1-{[(cyclopropylsulfonyl)amino]carbonyl}-2-vinylcyclopropyl)-L-prolinamide] | 100 to 1000 | 20 to 200
C=C[C@@H]1C[C@]1(NC(=O)[C@@H]1C[C@@H](Oc2ncc(OC)c3ccc(Cl)cc23)CN1C(=O)[C@H](Nc1ccccc1F)C(C)(C)C)C(=O)NS(=O)(=O)C1CC1 [234 second isomer, N-(2-fluorophenyl)-3-methyl-D-valyl-(4R)-4-[(7-chloro-4-methoxy-1-isoquinolinyl)oxy]-N-((1R,2S)-1-{[(cyclopropylsulfonyl)amino]carbonyl}-2-vinylcyclopropyl)-L-prolinamide] | > 1000 | > 200
C=C[C@@H]1C[C@]1(NC(=O)[C@@H]1C[C@@H](Oc2nc3c(c4cc(OC)ccc24)OCCN3C)CN1C(=O)[C@H](Nc1ccc(F)c(F)c1)C(C)(C)C)C(=O)NS(=O)(=O)C1CC1 [235 second isomer, N-(3,4-difluorophenyl)-3-methyl-D-valyl-(4R)—N-((1R,2S)-1-((cyclopropylsulfonyl)carbamoyl)-2-vinylcyclopropyl)-4-((9-methoxy-4-methyl-3,4-dihydro-2H-[1,4]oxazino[3,2-c]isoquinolin-6-yl)oxy)-L-prolinamide] | 3 to 100 | 0.6 to 20
